Columns and labels:
PLK1 = target: T1, PLK1 (Homo sapiens, UniProt P53350); assay: Luciferase assay for PLK1 in HeLa LgBit (Plk1-HiBit KI) cell line; assay type: cell-based; conditions: 300 nM compound, luminescence after 9 hours
T1 construct: endogenous in cells; host or cells: HeLa cells stably expressing LgBit, with CRISPR/Cas9 knock-in of HiBit at the endogenous PLK1 locus
Method: 2. Luciferase Assay for PLK1
(1) Preparation and Culture of HeLa LgBit (Plk1-HiBit KI) Cell Line
A HeLa cell line in which the LgBit vector was transfected and expressed stably was prepared. Then, after constructing gRNA and donor to express the HiBit amino acid sequence behind the C-terminal of the Plk1 gene, which was inherent in the cell, it was inserted into the cell together with a vector capable of expressing CRISPR/Cas9. Only the cells in which the insertion was completed and knock-in had progressed were selected, sub-cultured and used.
(2) Treatment of Compounds of the Present Invention and Method of Luciferase Assay
In the case of HeLa LgBit (Plk1-HiBit KI), the compounds were treated after being released after thymidine block, and the process was as follows. Thymidine (Sigma-Aldrich Cat. No. T9250-5G) was completely dissolved in DW and used in the experiment. For thymidine block, the products were treated with 2 mM of thymidine and then incubated for 24 hours. For release and chemical treatment, the medium was suctioned and washed with 1×PBS. TrypLE™ was added and incubated in 37° C. CO2 incubator for 5 min. Cells neutralized by adding complete media were counted through a counter. For each well of a 96-well culture plate (SPL), 3.3×10^4 cells and a total medium volume of 150 μL were seeded and incubated in a CO2 incubator.
Each cell line was incubated in a CO2 incubator for 18 hours, and Endurazine was added to each well to make up 4% of the total volume. After adding the compound of the present invention in a 96-well white plate (SPL) to a concentration of 300 nM, the wavelength of the plate reader (BMG Labtech, CLARIOstar Plus) was set to […], and then the luminescence was tracked in real time.
The results are shown in Table 2 below and FIGS. 1 and 2.
In Table 2, Activity represents the ratio of the luminescence value of each Exemplary Compound treatment group to DMSO treatment group (+++: <0.3, ++ <0.6, + <0.7).

H526 cell line = assay: Cell viability assay for H526 cell line; assay type: cell-based; conditions: Homo sapiens, NCI-H526, 120 h; H526 cells, 5 days, EZ-Cytox, 0.46-3000 nM
Method: 3. Cell Viability Assay for H526 Cell Line
(1) Culture of NCI-H526 Cell Line
(2) Treatment of Compounds of the Present Invention and Method of Cell Viability Assay
After treating the compound to each well to make the total volume of 200 μL, it was cultured in a CO2 incubator (Thermo Fisher Science, Cat. No. 4111) for 5 days.
The absorbance of the completely cultured sample was measured by setting the wavelength of a plate reader (BMG Labtech, CLARIOstar Plus) to […], and was measured after shaking for 3 minutes in a plate reader before measurement.
In Table 3, Activity represents IC50 value of each Exemplary Compound treatment group to H526 cell line (A: <30 nM, B: <50 nM, C: <100 nM, D: <200 nM, E: <400 nM).

[1] = Cell viability assay for MRC-5 cell line; conditions: human, MRC-5 cells (normal cell line)
Method: Cell Viability Assay for MRC-5 Cell Line
(1) Culture of MRC-5 Cell Line
The MRC-5 cell line was purchased from Korea Cell Line Bank (KCLB), Seoul, Korea. Passage of cultured cells was maintained within P15.
6×10^3 cells were seeded for each well of a 96-well plate (SPL), and the cells were cultured in total volume of 150 μL.
Each well was mixed with a medium and treated, and the volume was set to 50 μL, so that the total volume of each well was 200 μL. Then, it was cultured in 37° C.
The following compounds were used as comparative examples, and the cell viability assay was performed in the same manner as in the compounds of Examples.
(3) Cytotoxicity Experiment
After treating EZ-Cytox (DOGEN, Cat. NO. EZ-3000, Lot. No. DLS2112) 20 μL in each well of completely cultured plate, it was cultured in 37° C. CO2 incubator for 4 hours. […] The data were converted into graphs using the Prism (ver. 9) program.

T1 sequence (P53350 whole entry): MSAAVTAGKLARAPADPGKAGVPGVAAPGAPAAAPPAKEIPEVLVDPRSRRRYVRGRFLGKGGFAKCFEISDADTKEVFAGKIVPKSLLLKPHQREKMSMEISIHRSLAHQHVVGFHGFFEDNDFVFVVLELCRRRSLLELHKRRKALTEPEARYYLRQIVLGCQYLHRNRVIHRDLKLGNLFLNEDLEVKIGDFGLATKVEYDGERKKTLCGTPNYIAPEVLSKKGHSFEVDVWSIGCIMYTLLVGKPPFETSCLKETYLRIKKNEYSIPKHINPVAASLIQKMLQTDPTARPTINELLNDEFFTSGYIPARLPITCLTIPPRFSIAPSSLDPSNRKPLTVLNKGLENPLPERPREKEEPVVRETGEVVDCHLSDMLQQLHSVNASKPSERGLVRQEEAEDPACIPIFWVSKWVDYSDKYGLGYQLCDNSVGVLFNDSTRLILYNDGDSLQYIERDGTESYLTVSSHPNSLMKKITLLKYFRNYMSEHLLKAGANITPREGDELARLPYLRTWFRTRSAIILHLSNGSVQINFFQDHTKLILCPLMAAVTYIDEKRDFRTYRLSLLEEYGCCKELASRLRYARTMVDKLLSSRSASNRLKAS

Compound | Activity: ratio of the luminescence value of each Exemplary Compound treatment group to DMSO treatment group (PLK1) | IC50 (H526 cell line) [nM] | IC50 at 5 days [1] [nM]
COc1cc(C(=O)NC2CCN(C(=O)CCCOc3cccc(C4CCC(=O)NC4=O)c3)CC2)ccc1Nc1ncc2c(n1)N(C(C)C)CC(F)(F)C(=O)N2C (centres unmarked) [Compound 1, 4-((7,7-difluoro-9-isopropyl-5-methyl-6-oxo-6,7,8,9-tetrahydro-5H-pyrimido[4,5-b][1,4]diazepin-2-yl)amino)-N-(1-(4-(3-(2,6-dioxopiperidin-3-yl)phenoxy)butanoyl)piperidin-4-yl)-3-methoxybenzamide] | +++ (+++: <0.3) | < 50 | > 10000
COc1cc(C(=O)NC2CCN(C(=O)CCN3CCN(c4ccc(C5CCC(=O)NC5=O)cc4)CC3)CC2)ccc1Nc1ncc2c(n1)N(C(C)C)CC(F)(F)C(=O)N2C (centres unmarked) [Compound 2, 4-((7,7-difluoro-9-isopropyl-5-methyl-6-oxo-6,7,8,9-tetrahydro-5H-pyrimido[4,5-b][1,4]diazepin-2-yl)amino)-N-(1-(3-(4-(4-(2,6-dioxopiperidin-3-yl)phenyl)piperazin-1-yl)propanoyl)piperidin-4-yl)-3-methoxybenzamide] | ++ (++ <0.6) | < 30 | > 10000
COc1cc(C(=O)NC2CCN(C(=O)CCN3CCN(c4ccc(C5CCC(=O)NC5=O)cc4)CC3)CC2)ccc1Nc1ncc2c(n1)N(C(C)C)CC1(CC1)C(=O)N2C (centres unmarked) [Compound 3, N-(1-(3-(4-(4-(2,6-dioxopiperidin-3-yl)phenyl)piperazin-1-yl)propanoyl)piperidin-4-yl)-4-((9′-isopropyl-5′-methyl-6′-oxo-5′,6′,8′,9′-tetrahydrospiro[cyclopropane-1,7′-pyrimido[4,5-b][1,4]diazepin]-2′-yl)amino)-3-methoxybenzamide] | ++ (++ <0.6) | < 100 | > 10000
COc1cc(C(=O)NC2CCN(C(=O)CCN3CCN(c4cccc(C5CCC(=O)NC5=O)c4)CC3)CC2)ccc1Nc1ncc2c(n1)N(C(C)C)CC(F)(F)C(=O)N2C (centres unmarked) [Compound 4, 4-((7,7-difluoro-9-isopropyl-5-methyl-6-oxo-6,7,8,9-tetrahydro-5H-pyrimido[4,5-b][1,4]diazepin-2-yl)amino)-N-(1-(3-(4-(3-(2,6-dioxopiperidin-3-yl)phenyl)piperazin-1-yl)propanoyl)piperidin-4-yl)-3-methoxybenzamide] | ++ (++ <0.6) | < 30 | > 10000
COc1cc(C(=O)NC2CCN(C(=O)CCN3CCN(c4cccc(C5CCC(=O)NC5=O)c4)CC3)CC2)ccc1Nc1ncc2c(n1)N(C(C)C)CC1(CC1)C(=O)N2C (centres unmarked) [Compound 5, N-(1-(3-(4-(3-(2,6-dioxopiperidin-3-yl)phenyl)piperazin-1-yl)propanoyl)piperidin-4-yl)-4-((9′-isopropyl-5′-methyl-6′-oxo-5′,6′,8′,9′-tetrahydrospiro[cyclopropane-1,7′-pyrimido[4,5-b][1,4]diazepin]-2′-yl)amino)-3-methoxybenzamide] | ++ (++ <0.6) | < 200 | > 10000
COc1cc(C(=O)NC2CC3(CCN(CC4CCN(c5ccc(C6CCC(=O)NC6=O)cc5F)CC4)CC3)C2)ccc1Nc1ncc2c(n1)N1CCC[C@@H]1CC(=O)N2C (stereo partly drawn) [Compound 24, N-(7-((1-(4-(2,6-dioxopiperidin-3-yl)-2-fluorophenyl)piperidin-4-yl)methyl)-7-azaspiro[3.5]nonan-2-yl)-3-methoxy-4-(((R)-5-methyl-6-oxo-6,7,7a,8,9,10-hexahydro-5H-pyrimido[5,4-b]pyrrolo[1,2-d][1,4]diazepin-2-yl)amino)benzamide] | ++ (++ <0.6) | < 100 | 
COc1cc(C(=O)NC2CC3(CCN(CCC4(C)CCN(c5ccc(C6CCC(=O)NC6=O)cc5F)C4)CC3)C2)ccc1Nc1ncc2c(n1)N(C(C)C)CC(F)(F)C(=O)N2C (centres unmarked) [Compound 26, 4-((7,7-difluoro-9-isopropyl-5-methyl-6-oxo-6,7,8,9-tetrahydro-5H-pyrimido[4,5-b][1,4]diazepin-2-yl)amino)-N-(7-(2-(1-(4-(2,6-dioxopiperidin-3-yl)-2-fluorophenyl)-3-methylpyrrolidin-3-yl)ethyl)-7-azaspiro[3.5]nonan-2-yl)-3-methoxybenzamide] | ++ (++ <0.6) | < 30 | 
COc1cc(C(=O)NC2CC3(CCN(C[C@H]4C[C@@H]5C[C@H]4CN5c4ccc(C5CCC(=O)NC5=O)cc4F)CC3)C2)ccc1Nc1ncc2c(n1)N(C(C)C)CC(F)(F)C(=O)N2C (stereo partly drawn) [Compound 27, 4-((7,7-difluoro-9-isopropyl-5-methyl-6-oxo-6,7,8,9-tetrahydro-5H-pyrimido[4,5-b][1,4]diazepin-2-yl)amino)-N-(7-(((1R,4R,5S)-2-(4-(2,6-dioxopiperidin-3-yl)-2-fluorophenyl)-2-azabicyclo[2.2.1]heptan-5-yl)methyl)-7-azaspiro[3.5]nonan-2-yl)-3-methoxybenzamide] | ++ (++ <0.6) | < 30 | 
COc1cc(C(=O)NC2CC3(CCN(CC4CCN(c5ccc(C6CCC(=O)NC6=O)cc5F)C(=O)C4)CC3)C2)ccc1Nc1ncc2c(n1)N(C(C)C)CC(F)(F)C(=O)N2C (centres unmarked) [Compound 28, 4-((7,7-difluoro-9-isopropyl-5-methyl-6-oxo-6,7,8,9-tetrahydro-5H-pyrimido[4,5-b][1,4]diazepin-2-yl)amino)-N-(7-((1-(4-(2,6-dioxopiperidin-3-yl)-2-fluorophenyl)-2-oxopiperidin-4-yl)methyl)-7-azaspiro[3.5]nonan-2-yl)-3-methoxybenzamide] | ++ (++ <0.6) | < 30 | 
COc1cc(C(=O)NC2CC3(CCN(CCC4CCN(c5ccc(C6CCC(=O)NC6=O)cc5F)CC4)CC3)C2)ccc1Nc1ncc2c(n1)N(C(C)C)CC(F)(F)C(=O)N2C (centres unmarked) [Compound 29, 4-((7,7-difluoro-9-isopropyl-5-methyl-6-oxo-6,7,8,9-tetrahydro-5H-pyrimido[4,5-b][1,4]diazepin-2-yl)amino)-N-(7-(2-(1-(4-(2,6-dioxopiperidin-3-yl)-2-fluorophenyl)piperidin-4-yl)ethyl)-7-azaspiro[3.5]nonan-2-yl)-3-methoxybenzamide] | ++ (++ <0.6) | < 30 | 
COc1cc(C(=O)NCC2CC3(CCN(CC4CCN(c5ccc(C6CCC(=O)NC6=O)cc5F)CC4)CC3)C2)ccc1Nc1ncc2c(n1)N(C(C)C)CC(F)(F)C(=O)N2C (centres unmarked) [Compound 30, 4-((7,7-difluoro-9-isopropyl-5-methyl-6-oxo-6,7,8,9-tetrahydro-5H-pyrimido[4,5-b][1,4]diazepin-2-yl)amino)-N-((7-((1-(4-(2,6-dioxopiperidin-3-yl)-2-fluorophenyl)piperidin-4-yl)methyl)-7-azaspiro[3.5]nonan-2-yl)methyl)-3-methoxybenzamide] | +++ (+++: <0.3) | < 100 | 
COc1cc(C(=O)NN2CCC(N3CC4(CCN(c5ccc(C6CCC(=O)NC6=O)cc5F)CC4)C3)CC2)ccc1Nc1ncc2c(n1)N(C(C)C)CC(F)(F)C(=O)N2C (centres unmarked) [Compound 40, 4-((7,7-difluoro-9-isopropyl-5-methyl-6-oxo-6,7,8,9-tetrahydro-5H-pyrimido[4,5-b][1,4]diazepin-2-yl)amino)-N-(4-(7-(4-(2,6-dioxopiperidin-3-yl)-2-fluorophenyl)-2,7-diazaspiro[3.5]nonan-2-yl)piperidin-1-yl)-3-methoxybenzamide] | ++ (++ <0.6) | < 30 | 
